These results are taken from patent US20230033582A1, “POLYMERIC NANOPARTICLES FOR ENHANCED CANCER TREATMENT” (THE QUEEN'S UNIVERSITY OF BELFAST, priority 2019, published 2023).

One assay relates to MC38 cells. Briefly: Flow cytometry of SIINFEKL presentation on MHC I (SIINFEKL-bound MHC antibody) in MC38 cells. The note with it: for presentation of NP-encapsulated OVA-derived SIINFEKL after pre-treatment: then OVA-NPs for 6 hours. It is filed as cell-based. The procedure:
FIG. 8: illustrate the results of Gemcitabine enhances SIINFEKL presentation: MC38 cells were pretreated with 30 nm Gemcitabine for 24 hours. Then, cells were treated with 1 μM SIINFEKL peptide for 6 hours. After 6 hours, cells were stained with PE-SIINFEKL-bound MHC antibody to determine the levels of SIINFEKL presentation. Presentation of SIINFEKL was enhanced after pre-treatment with Gemcitabine highlighting the potential of boosting CD8+ T cell recognition of tumour cells through combining the nanoformulation with Gemcitabine;
FIG. 9: illustrate the results of Gemcitabine enhances the presentation of Ovalbumin-derived SIINFEKL encapsulated within nanoparticles: MC38 cells were pre-treated with 7.5, 15 and 30 nm Gemcitabine for 24 hours. Then, the cells were treated with OVA-NPs for 6 hours. After 6 hours, cells were stained with PE-SIINFEKL-Bound MHC antibody and an isotype control antibody to determine levels of OVA-derived SIINFEKL presentation. NP-encapsulated OVA-derived SIINFEKL was seen to be enhanced after pre-treatment with Gemcitabine;
FIG. 10: illustrate the results of Epigenetic modifying agents (EMAs) enhance the presentation of Ovalbumin-derived SIINFEKL encapsulated within nanoparticles: MC38 cells were pre-treated with Entinostat and Decitabine. After 24 hours, cells were treated with OVA-NPs (250 μg/mL) for 6 hours. Cells were stained with SIINFEKL-bound MHC antibody and the surface presentation of SIINFEKL was determined by flow cytometry. Both agents in combination enhanced SIINFEKL presentation;
FIG. 11: illustrate the results of Lysosome disruptive agent L-leucyl-L-leucine methyl ester (LLOME) enhances the presentation of Ovalbumin-derived SIINFEKL encapsulated within nanoparticles: MC38 cells were pre-treated with LLOME for 24 hours. Then, the cells were treated with OVA-NPs for 6 hours. After 6 hours, cells were stained with PE-SIINFEKL-bound MHC antibody and an isotype control antibody to determine levels of OVA-derived SIINFEKL presentation. NP-encapsulated OVA-derived SIINFEKL was seen to be enhanced after pre-treatment with LLOME;
FIG. 12: illustrate the results of the anti-malarial Mefloquine enhances the presentation of Ovalbumin-derived SIINFEKL encapsulated within nanoparticles: MC38 cells were pre-treated with Mefloquine for 24 hours. Then, the cells were treated with OVA-NPs for 6 hours. After 6 hours, cells were stained with PE-SIINFEKL-bound MHC antibody and an isotype control antibody to determine levels of OVA-derived SIINFEKL presentation. NP-encapsulated OVA-derived SIINFEKL was seen to be enhanced after pre-treatment with Mefloquine.
MC38 cells were seeded at 5×10^4 in 6 well plates and left overnight to adhere in 2 mL of the appropriate growth medium. Following this, the cells were treated with 250 μg/mL of either acid terminated poly(lactic-co-glycolic acid) (PLGA) nanoparticles (NPs) or PLGA NPs encapsulating the SIINFEKL peptide (for cells treated at 4 degrees C., cells were maintained at 4° C. for 45 minutes prior to treatment). Following treatment, the cells were washed 3 times with sterile PBS (4° C. treatment group were washed on ice) and the cells incubated for a following 6 hours at 37° C. The surface expression of SIINFEKL was determined by flow cytometry.
MC38 cells were seeded at 5×10^4 in 6 well plates and left overnight to adhere in 2 mL of the appropriate growth medium. Following this, the cells were treated with 250 μg/mL of either acid terminated poly(lactic-co-glycolic acid) (PLGA) nanoparticles (NPs) or PLGA NPs encapsulating the Ovalbumin protein. Free, pre-processed SIINFEKL was used as a positive control. Cells were incubated for 24 hours at 37° C. Following this, the cells were collected and incubated with a PE-conjugated antibody specific for MHC-I bound to the SIINFEKL peptide (Biolegend, USA). Next, presentation of the SIINFEKL peptide was assessed by flow cytometry. […]
In general terms: In flow cytometry, cells or beads pass a laser one at a time.

For assay [1], the target named is SIINFEKL bound to MHC class I on the cell surface (UniProt P01901). Nature of the assay: flow cytometry, JAWS II cells treated with free SIINFEKL
A further assay deals with JAWS II cells. Nature of the assay: Flow cytometry of SIINFEKL presentation on MHC I (SIINFEKL-bound MHC antibody) in JAWS II dendritic cell line. It is filed as cell-based. The following applies: FIG. 5, free SIINFEKL positive control, 6 hours. The procedure: FIG. 5: illustrate the results of Nanoparticle encapsulated SIINFEKL is presented on MHC I in the JAWS II dendritic cell line: JAWS II cells were seeded in 6 well plates at 1×10^5 and left overnight. The following day, cells were treated with either 500 μg of PLGA-SIINFEKL NP (SIINFEKL NP), PLGA NP (B-NP) or free SIINFEKL (Positive control). The cells were incubated at 37° C. in 5% CO2 for 6 hours. After incubation, an antibody specific for SIINFEKL bound to MHC I was used to detect cell surface expression of the antigen. Assessment was undertaken using flow cytometry. An Isotype specific IgG control (SIINFEKL IgG) was used to detect non-specific binding of the antibody. […] Diagram is a representative figure from 3 independent experiments;
FIG. 6: illustrate the results of Presentation of nanoparticle-encapsulated SIINFEKL is dependent on endocytosis: (A) JAWS II cells and (B) MC38 cells ells were treated with either 250 μg/mL blank nanoparticles (B-NP), 250 μg/mL nanoparticles encapsulating the SIINFEKL peptide (SIINFEKL-NP) or 1 μM free SIINFEKL (positive control) for 1 hour at either 4° C. or 37° C. Cells were washed to remove non-endocytosed nanoparticles or free peptide and were incubated at 37° C. Cells were stained with SIINFEKL-bound MHC antibody and SIINFEKL presentation was determined by flow cytometry. […]

Where [2] appears, read: FIG. 11 and 12, MC38 cells pre-treated for 24 hours.

Take `Nc1ccccc1NC(=O)c1ccc(CNC(=O)OCc2cccnc2)cc1` [Entinostat]: in the assay on MC38 cells (FIG. 10, MC38 cells pre-treated with Entinostat and Decitabine 24 hours, then OVA-NPs (250 μg/mL) for 6 hours), the “SIINFEKL presentation after pre-treatment, both agents in combination” value is on record as “enhanced”.
`Nc1ccn([C@@H]2O[C@H](CO)[C@@H](O)C2(F)F)c(=O)n1` [Gemcitabine]: in the assay with MC38 cells (FIG. 8, MC38 cells pretreated with 30 nm Gemcitabine for 24 hours, then 1 μM SIINFEKL peptide for 6 hours), the “Presentation of SIINFEKL after pre-treatment” value was “enhanced”. For the same compound, in the assay on MC38 cells (FIG. 9, MC38 cells pre-treated with 7.5, 15 and 30 nm Gemcitabine for 24 hours), the “presentation of NP-encapsulated OVA-derived SIINFEKL after pre-treatment” value was “enhanced”.
Consider `COC(=O)[C@H](CC(C)C)NC(=O)[C@@H](N)CC(C)C` [LLOME, L-leucyl-L-leucine methyl ester], for which the “presentation of NP-encapsulated OVA-derived SIINFEKL after pre-treatment” value in the assay on MC38 cells (setting [2]) is on record as “enhanced”.
Turning to `OC(c1cc(C(F)(F)F)nc2c(C(F)(F)F)cccc12)C1CCCCN1` (centres unmarked) [Mefloquine], the “presentation of NP-encapsulated OVA-derived SIINFEKL after pre-treatment” value with MC38 cells (setting [2]) is “enhanced”.
With “PE-conjugated antibody specific for MHC-I bound to the SIINFEKL peptide (Biolegend, USA)”, the positive cells in assay [1] stood at 100%.
Take “SIINFEKL (Model Peptide) [SIINFEKL peptide, positive control]”: the “cells positive for SIINFEKL-MHC I antibody staining” value in the assay on JAWS II cells is listed as around 100%. Moreover, in the assay with MC38 cells (FIG. 3, MC38 cells, 1 μM SIINFEKL peptide for 4 hours), the “SIINFEKL on the cell surface (fluorescent signal, geomean)” value is “high levels SIINFEKL on the surface”.
